Source: ChEMBL document CHEMBL4177545, “Potential Antiosteoporotic Natural Product Lead Compounds That Inhibit 17β-Hydroxysteroid Dehydrogenase Type 2” (J Nat Prod, 2017)
pIC50: −log10 of the molar value.

Key:
[1] = molecular target: T1, 17-beta-hydroxysteroid dehydrogenase type 1 (Homo sapiens, UniProt P14061); experiment: Inhibition of human 17beta-HSD1 expressed in HEK293 cell lysates incubated for 10 mins using [2,4,6,7-3H]-estrone and NADPH by scintillation counting method
T1 sequence (P14061 whole entry): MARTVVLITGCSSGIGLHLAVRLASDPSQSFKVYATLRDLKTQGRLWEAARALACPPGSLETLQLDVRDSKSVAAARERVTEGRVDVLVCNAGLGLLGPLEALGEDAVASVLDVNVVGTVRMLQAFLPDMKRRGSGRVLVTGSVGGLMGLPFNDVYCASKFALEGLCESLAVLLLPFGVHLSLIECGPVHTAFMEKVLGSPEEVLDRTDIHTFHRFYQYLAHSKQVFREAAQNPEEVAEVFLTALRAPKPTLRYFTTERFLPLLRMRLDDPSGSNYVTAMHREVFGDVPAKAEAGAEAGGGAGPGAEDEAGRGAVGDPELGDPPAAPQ

[2] = species on record: Homo sapiens; experiment: Selectivity index, ratio of inhibition of human 17beta-HSD1 expressed in HEK293 cell lysates to inhibition of human 17beta-HSD2 expressed in HEK293 cell lysates
[3] = molecular target: T2, Aromatase (Homo sapiens, UniProt P11511); experiment: Inhibition of aromatase (unknown origin)
T2 sequence (P11511 whole entry): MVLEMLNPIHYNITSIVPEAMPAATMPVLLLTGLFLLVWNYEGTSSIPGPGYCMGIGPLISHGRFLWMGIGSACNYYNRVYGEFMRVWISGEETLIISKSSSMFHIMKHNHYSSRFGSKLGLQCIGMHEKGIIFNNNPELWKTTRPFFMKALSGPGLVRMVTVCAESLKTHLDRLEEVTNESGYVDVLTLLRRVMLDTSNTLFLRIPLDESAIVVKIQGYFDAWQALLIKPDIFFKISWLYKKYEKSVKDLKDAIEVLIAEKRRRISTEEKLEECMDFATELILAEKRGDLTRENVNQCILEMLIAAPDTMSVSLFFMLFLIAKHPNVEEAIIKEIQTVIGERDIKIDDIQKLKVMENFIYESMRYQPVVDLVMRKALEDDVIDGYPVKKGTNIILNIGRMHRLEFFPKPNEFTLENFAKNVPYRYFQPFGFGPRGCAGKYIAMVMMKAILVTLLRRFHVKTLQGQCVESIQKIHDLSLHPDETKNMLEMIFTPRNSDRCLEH

[4] = molecular target: T3, Estrogen receptor (Homo sapiens, UniProt P03372); experiment: Displacement of estradiol from human ERalpha expressed in yeast cells; assay type: cell-based
T3 sequence (P03372 whole entry): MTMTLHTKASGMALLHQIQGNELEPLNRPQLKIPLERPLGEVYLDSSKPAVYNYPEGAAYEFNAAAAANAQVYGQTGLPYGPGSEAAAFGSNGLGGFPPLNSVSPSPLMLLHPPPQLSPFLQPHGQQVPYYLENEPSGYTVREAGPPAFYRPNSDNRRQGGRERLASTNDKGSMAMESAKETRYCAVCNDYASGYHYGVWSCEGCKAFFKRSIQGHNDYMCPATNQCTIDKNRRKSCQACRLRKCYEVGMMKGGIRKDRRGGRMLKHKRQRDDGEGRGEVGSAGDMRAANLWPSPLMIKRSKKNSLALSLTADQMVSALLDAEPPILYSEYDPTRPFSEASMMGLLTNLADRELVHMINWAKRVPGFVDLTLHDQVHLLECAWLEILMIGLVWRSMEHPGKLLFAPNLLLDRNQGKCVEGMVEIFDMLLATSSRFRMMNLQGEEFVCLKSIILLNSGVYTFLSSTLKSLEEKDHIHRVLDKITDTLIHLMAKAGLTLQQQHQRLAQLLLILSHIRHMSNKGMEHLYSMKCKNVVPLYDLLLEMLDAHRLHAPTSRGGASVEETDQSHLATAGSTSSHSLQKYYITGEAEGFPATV

[5] = molecular target: Estrogen receptor beta (Homo sapiens, UniProt Q92731); experiment: Displacement of estradiol from human ERbetaa expressed in yeast cells; assay type: cell-based
Chain of Estrogen receptor beta (Q92731 whole entry): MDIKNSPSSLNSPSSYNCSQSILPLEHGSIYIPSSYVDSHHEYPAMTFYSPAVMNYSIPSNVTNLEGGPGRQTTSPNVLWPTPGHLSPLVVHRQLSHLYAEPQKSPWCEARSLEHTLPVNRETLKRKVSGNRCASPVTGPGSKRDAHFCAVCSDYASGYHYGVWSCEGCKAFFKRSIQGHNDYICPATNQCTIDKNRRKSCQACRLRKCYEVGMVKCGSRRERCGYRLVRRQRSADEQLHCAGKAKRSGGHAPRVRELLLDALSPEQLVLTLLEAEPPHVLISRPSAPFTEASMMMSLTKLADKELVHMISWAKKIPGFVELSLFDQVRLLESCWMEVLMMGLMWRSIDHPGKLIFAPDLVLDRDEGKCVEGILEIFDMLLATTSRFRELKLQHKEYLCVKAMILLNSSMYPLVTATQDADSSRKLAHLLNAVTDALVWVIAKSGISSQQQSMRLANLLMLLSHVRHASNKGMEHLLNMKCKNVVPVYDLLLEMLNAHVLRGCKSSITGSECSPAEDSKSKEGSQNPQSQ

Structure (SMILES) | IC50 [1] | other results
O=C(/C=C/c1ccc(O)c(O)c1)O[C@H](Cc1ccc(O)c(O)c1)C(=O)O [ROSMARINIC ACID] | Not Active | 
O=C(Cc1ccc(O)c(Cl)c1)NCCc1ccccc1 | Not Active | 
O=C(Cc1ccc(O)c(Cl)c1)NCc1ccccc1 | Not Active | 
O=C(Cc1ccc(O)c(Cl)c1)NCc1ccccc1Cl |  | Selectivity Index [2]: 25
O=C(/C=C/c1ccc(O)cc1)c1ccc(O)cc1O [ISOLIQUIRITIGENIN] |  | pIC50 [3]: 5.42; pIC50 [4]: 5.73; pIC50 [5]: 6.57
O=C(Cc1ccc(O)c(Cl)c1)NCCc1c[nH]c2ccccc12 | Not Active | 
CCOC(=O)c1ccc(O)c(OC)c1 | Not Active | 
COc1cc(/C=C/C(=O)CC(=O)/C=C/c2ccc(O)c(OC)c2)ccc1O |  | Selectivity Index [2]: 12
